This assay has as its system HSP70 in HCT116 cells. Kind of assay: Cell-based ELISA for HSP70 expression. On the set-up: species or system human. As to conditions: for % increase in HSP70 (Normalised Europium Counts compared to DMSO controls): HCT116, 10 μM compound. The text has this: Cell-based ELISA methods (see, e.g., Stockwell et al., 1999; Versteeg et al., 2000) offer several advantages for evaluating the pharmacodynamic effects of novel mechanism-based inhibitors and may be the method of choice for comparing inhibitors that are identified during the iterative process of lead identification and optimisation. The technique can be used to rapidly rank the effectiveness of compounds as well as to investigate the molecular mechanisms of their action. The increased sample throughput possible with ELISA means that compounds can be simultaneously studied in multiple replicates at different doses and exposure times. […] The assays are carried out directly on cells grown and treated in microtitre plates, thereby removing the necessity for preparing cell lysates. ELISA techniques can in theory be applied to any cellular protein or post-translational modification for which an antibody is available and results are at least semi-quantitative.
Chemicals are of the highest purity commercially available. • (1) Human colon tumour cell lines (e.g., HCT116 and HT29 from American Tissue Culture Collection, ATCC) grown in Dulbecco's modified Eagle's medium (DMEM) (CSSD, Institute of Cancer Research, London, UK) supplemented with […] glucose, 10% foetal bovine serum (FBS), 200 mM L-glutamine, and 5 ml non-essential amino acids in a humidified atmosphere of 5% CO2 at 37° C. • (2) 96 well Falcon clear microtitre tissue culture plates (BD Labware, Hospital Management and Supplies, Ltd., Northampton, UK). • (3) DMSO diluted in dH2O (8%). • (4) HSP90 inhibitors at required concentration dissolved in DMSO. • (5) Fixing solution (0.25% glutaraldehyde, 3% paraformaldehyde and 0.25% Triton-X 100) (all from Sigma Aldrich Ltd, Poole, UK). • (6) Blocking solution (5% dried milk (Marvel) in PBS) prepared daily. • (7) Anti HSP70 monoclonal antibody (SPA 810, Bioquote, York, UK). • (8) DELFIA® wash buffer, enhancement solution, assay buffer and Europium labelled anti-mouse IgG (1244–1330) (PerkinElmer Life Sciences, Milton Keynes, UK). • (9) BCA protein assay reagents (Perbio Science UK Ltd., Chester, UK). Method
Incubate at 37° for 30 min. • (6) Wash plates twice in PBS using an automated washer (Wellwash 5000 ten plate stacker-washer or Wellwash Ascent single plate washer, Thermo Labsystems, Basingstoke, UK). • (7) Block the plates by addition of blocking solution (100 μl) and incubate for 30 min. • (8) Add 100 μl primary antibody diluted to 0.95 μg/ml in PBS to each well and incubate plate for 1.5 h. Wash plates once with DELFIA® wash solution. • (9) Add 100 μl Europium labelled anti-mouse IgG diluted in DELFIA® assay buffer to 75 ng/ml and incubate for 1 hour. Wash plates once with DELFIA® wash solution as before. • (10) Add 100 μl DELFIA® enhancement solution to each well. • (11) Measure the fluorescence (615 nm) in Victor 2 1420 multilabel counter (Perkin Elmer Life Sciences, Milton Keynes, UK) using time-resolved measurement mode. • (12) Wash plates once with PBS and measure protein concentration by the addition of 200 μl BCA reagent to each well, shake for 1–2 min and incubate for 30 mins at 37° C. Read absorption at 570 nm. • (13) Express ELISA results by normalising to protein in the well (Eu counts (cpm) divided by OD@ 570 nm). Compare the effect of HSP90 inhibitors on HSP70 expression with DMSO treated controls. Comments • (1) Cells plated into 96 well plates are incubated in a plastic box to reduce evaporation from the outside wells. […]

For `CCc1cc(-c2n[nH]c(C)c2-c2ccc3c(c2)OCCO3)c(O)cc1O` [CCT018159, 4-[4-(2,3-Dihydro-benzo[1,4]dioxin-6-yl)-5-methyl-1H-pyrazol-3-yl]-6-ethyl-benzene-1,3-diol], the “% increase in HSP70 (Normalised Europium Counts compared to DMSO controls)” value by setting is: ((48 h)) 278%; ((time not given)) 158%. Also, the HSP70 induction result (HCT116, 10 μM, 48 h) is reported as “up to 2.8 fold”.
As for `Cc1[nH]nc(-c2ccc(O)cc2O)c1-c1ccc2c(c1)OCCO2` [CCT018157], the “% increase in HSP70 (Normalised Europium Counts compared to DMSO controls)” value ((48 h)) stood at 103% and the “% increase in HSP70 (Normalised Europium Counts compared to DMSO controls)” value ((time not given)) came to 105%.

The values above are taken from patent US7247734B2 (Vernalis (Cambridge) Limited, priority 2001, dated 2007).
